Test results: PMC7600788, “Sequence Permutation Generates Peptides with Different Antimicrobial and Antibiofilm Activities” (Pharmaceuticals, 2020)
Like-named read-outs stand apart in the source and are kept apart here. No end group written: not given here.

Tests used:
S. aureus USA300 LAC = format: cell-based, Staphylococcus aureus
Procedure: (§1) To gain additional insight, we also compared the effects of physiological saline and human serum on the antibacterial activities of WW291-WW298 using both E. coli and S. aureus (Table 3). In our assays, salts and serum were present during the entire course of the experiment. […] Thus, WW295 and WW298 stand out in terms of activity robustness (bold in Table 3).
(§2) The antibacterial activity of peptides was evaluated using a standard broth microdilution protocol with minor modifications as previously described. In brief, logarithmic phase bacterial cultures (i.e., optical density at 600 nm ≈ 0.5) were diluted to OD600~0.001 and partitioned into a 96-well polystyrene microplate at 90 μL per well. After treatment with 10 μL of peptide solutions two-fold diluted to various concentrations, microplates were incubated at 37 °C overnight and read on a ChroMate 4300 Microplate Reader at 630 nm (GMI, Ramsey, MN). […] Minimal bactericidal concentration (MBC) was determined by plating the clear wells at MIC or above. The peptide concentration that caused no bacterial growth on the petri dish is MBC.

P. aeruginosa PAO1 = format: cell-based, Pseudomonas aeruginosa
Procedure: (§3) The antimicrobial activity spectrum of the WW peptide series was performed on a panel of Gram-positive and -negative bacteria using the standard broth micro-dilution method with minor modifications as described. […] There was a small change in the case of Pseudomonas aeruginosa and Acinetobacter baumannii up to two-fold. Four-fold changes were found for Staphylococcus aureus, Staphylococcus epidermidis, Escherichia coli, and Bacillus subtilis. However, we observed over eight-fold MIC changes for Klebsiella pneumoniae and vancomycin-resistant enterococcus (VRE). […] We also observed more than eight-fold changes in minimal bacterial killing concentrations.
as §2

E. faecium VRE = format: cell-based
Procedure: as §3, §2

E. coli K12 = format: cell-based, Escherichia coli
Procedure: as §3, §2

human red blood cells = test: Hemolytic assay; format: cell-based
Procedure: (§4) Hemolytic assays of peptides were performed as previously described. Briefly, human red blood cells (hRBCs) obtained from UNMC Blood Bank, or chicken or porcine blood cells purchased from commercial sources as previously described, were washed three times with phosphate buffer saline (PBS) and diluted to a 2% solution (V/v). After peptide treatment, incubation at 37 °C for one hour, and centrifugation at 13,000 rpm, aliquots of the supernatant were carefully transferred to a fresh 96-well microplate. The amount of hemoglobin released was measured at 545 nm. The percent lysis was calculated by assuming 100% release when human blood cells were treated with 2% Triton X-100, and 0% release when incubated with PBS buffer. The peptide concentration that caused 50% lysis of hRBCs is defined as HC50.

Pig RBC = test: Hemolytic assay; format: cell-based
Procedure: as §4

chicken red blood cells = test: Hemolytic assay; format: cell-based
Procedure: as §4

A. baumannii B28-16 = format: cell-based, Acinetobacter baumannii
Procedure: as §3, §2

[1] = tested on: PMA differentiated THP-1 cells; test: MTS cytotoxicity assay; format: cell-based; conditions: PMA differentiated THP-1, serum free media, one hour treatment
Procedure: (§5) Peptides were assayed for potential in vitro toxicity against human keratinocytes (HaCaT) and THP-1 cells as previously described. THP-1 monocytes were differentiated into macrophages by adding 30 ng/mL of phorbol 12-myristate 13-acetate (PMA; Sigma-Aldrich) to RPMI 1640 supplemented with 10% fetal calf serum culture (FCS) medium for 16 h. Briefly, cells were seeded at a density of 3 × 10^4 per well in a tissue culture 96-well plate in DMEM/RPMI supplemented with 10% fetal bovine serum (FBS), and incubated at 37 °C in a 5% CO2 atmosphere for 24 h. African green monkey kidney Vero E6 cells were cultivated in EMEM in the same manner. Before antimicrobial treatment, wells were replaced with serum free media and treated with peptides at different concentrations for one hour. After incubation, the cells were washed and incubated with 100 μL of DMEM media containing 20 μL of 3-(4,5-dimethylthiazol-2-yl)-5-(3-carboxymethoxyphenyl)-2-(4-sulfophenyl)-2H-tetrazolium (MTS) reagent for two hours at 37 °C. The treatment time was one hour in the case of Vero E6 cells. Absorbance readings at 492 nm were taken using a ChroMate microplate reader (GMI, Ramsey, MN, USA).

[2] = tested on: human keratinocytes (HaCaT); test: MTS cytotoxicity assay; format: cell-based; conditions: serum free media, one hour treatment
Procedure: as §5

E. coli ATCC 25922 = format: cell-based, Escherichia coli
Procedure: as §1, §2

B. subtilis 167 = format: cell-based, Bacillus subtilis
Procedure: as §3, §2

S. aureus Mu50 = format: cell-based, Staphylococcus aureus
Procedure: as §3, §2

S. aureus USA300 = format: cell-based, Staphylococcus aureus
Procedure: as §2

[3] = tested on: monkey kidney Vero E6 cells; format: cell-based
Procedure: as §5, with “The treatment time was one hour in the case of Vero E6 cells.” left out

[4] = 2% RBC in PBS, 37 °C, one hour, hemoglobin at 545 nm

| Sequence | MIC, +150 mM NaCl (S. aureus USA300 LAC; USA300) [µM] | MIC, +10% Human Serum (S. aureus USA300 LAC; USA300) [µM] | MIC, TSB (S. aureus USA300 LAC; USA300) [µM] | Minimal Inhibitory Concentration (MIC), PA (P. aeruginosa PAO1; PAO1) [µM] | Minimal Inhibitory Concentration (MIC), VRE (E. faecium VRE; VRE) [µM] | Minimal Inhibitory Concentration (MIC), EC (E. coli K12; K12) [µM] | Human RBC, concentration that caused 50% red blood cell lysis (HC50) (human red blood cells; red cells of human) [µM] | Pig RBC, concentration that caused 50% red blood cell lysis (HC50) (Pig RBC) [µM] | Chicken RBC, concentration that caused 50% red blood cell lysis (HC50) (chicken red blood cells) [µM] | Minimal Inhibitory Concentration (MIC), AB (A. baumannii B28-16; B28-16) [µM] | THP-1, concentration that caused 50% cell death (LC50) [1] [µM] | HaCaT, concentration that caused 50% cell death (LC50) [2] [µM] | MIC, +150 mM NaCl (E. coli ATCC 25922; ATCC 25922) [µM] | MIC, +10% Human Serum (E. coli ATCC 25922; ATCC 25922) [µM] | MIC, TSB (E. coli ATCC 25922; ATCC 25922) [µM] | Minimal Inhibitory Concentration (MIC), BS (B. subtilis 167; 167) [µM] | Minimal Inhibitory Concentration (MIC), SA (S. aureus Mu50; Mu50) [µM] | MBC, USA300 (S. aureus USA300; USA300) [µM] | Vero Cells, concentration that caused 50% cell death (LC50) [3] [µM] | further results |
| --- | --- | --- | --- | --- | --- | --- | --- | --- | --- | --- | --- | --- | --- | --- | --- | --- | --- | --- | --- | --- |
| WWLRKIWW [WW292] | 6.2 | >25 | 6.2 | 25 | >50 | 25 | 175 | >100 | >100 | 12.5 | >100 | >100 | >25 | >25 | 12.5 | 12.5 | 12.5 | >25 | >100 | – |
| LRKIWWWW [WW294] | 6.2 | 25 | 6.2 | 50 | 25 | 12.5 | 143 | >100 | >100 | 12.5 | >100 | >100 | 25 | >25 | 12.5 | 25 | 12.5 | 25 | >100 | – |
| KIWWWWLR [WW296] | 1.6 | – | 1.6 | 50 | 25 | 6.2 to 12.5 | 103 | >100 | 50 | 12.5 | 35 | 100 | 25 | >25 | 3.1 to 6.2 | 12.5 | 3.1 | 6.2 | >100 | – |
| IWWWWLRK [WW297] | – | – | – | – | – | – | – | – | – | – | 38 | 100 | – | – | – | – | – | – | – | MIC, TSB (S. aureus USA300 LAC; S. aureus USA300 LAC, TSB): 3.1 µM; MIC, +150 mM NaCl (S. aureus USA300 LAC; S. aureus USA300 LAC, TSB +150 mM NaCl, present during entire experiment): 3.1 µM; MIC, +10% Human Serum (S. aureus USA300 LAC; S. aureus USA300 LAC, TSB +10% human serum, present during entire experiment): 25 µM; Minimal Inhibitory Concentration (MIC), PA (P. aeruginosa PAO1; P. aeruginosa PAO1, broth microdilution, 37 °C overnight): 50 µM; Minimal Inhibitory Concentration (MIC), VRE (E. faecium VRE; E. faecium VRE, broth microdilution, 37 °C overnight): 12.5 µM; Minimal Inhibitory Concentration (MIC), EC (E. coli K12; E. coli K12, broth microdilution, 37 °C overnight): 12.5 to 25 µM; Human RBC, concentration that caused 50% red blood cell lysis (HC50) (human red blood cells; [4]): 134 µM; Pig RBC, concentration that caused 50% red blood cell lysis (HC50) (Pig RBC; [4]): 110 µM; Chicken RBC, concentration that caused 50% red blood cell lysis (HC50) (chicken red blood cells; [4]): 100 µM; Minimal Inhibitory Concentration (MIC), AB (A. baumannii B28-16; A. baumannii B28-16, broth microdilution, 37 °C overnight): 6.25 to 12.5 µM; MIC, TSB (E. coli ATCC 25922; E. coli ATCC 25922, TSB): 12.5 µM; MIC, +150 mM NaCl (E. coli ATCC 25922; E. coli ATCC 25922, TSB +150 mM NaCl, present during entire experiment): 12.5 µM; MIC, +10% Human Serum (E. coli ATCC 25922; E. coli ATCC 25922, TSB +10% human serum, present during entire experiment): >25 µM; Minimal Inhibitory Concentration (MIC), BS (B. subtilis 167; B. subtilis 167, broth microdilution, 37 °C overnight): 12.5 µM; Minimal Inhibitory Concentration (MIC), SA (S. aureus Mu50; S. aureus Mu50, broth microdilution, 37 °C overnight): 6.2 µM; MBC, USA300 (S. aureus USA300; S. aureus USA300, minimal bactericidal concentration, plating clear wells at MIC or above): 12.5 µM; Vero Cells, concentration that caused 50% cell death (LC50) ([3]; Vero E6, serum free media, one hour treatment, MTS assay): >100 µM |
